Assay results from PubChem BioAssay AID248 (DTP/NCI, 2004).
Inconclusive results and toxic doses are left out. Rule as the data show it: active = T/C of 150% or more; inactive = T/C below 125%.

System: L1210 leukemia ip in BDF1 mice, survival T/C
Assay: NCI In Vivo Anticancer Drug Screen. Data for tumor model L1210 Leukemia (intraperitoneal) in B6D2F1 (BDF1) mice
Settings: endpoint: mean survival time, higher = longer survival
Outline: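 Tumor cells were implanted, animals were treated, and survival was followed. The result divides the treated measurement by the vehicle-control measurement.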

[1] = dose: 100.0 mg/kg/injection, schedule: Q01DX009 (ip), vehicle: Klucel (hydroxypropylcellulose) (HPC)
[2] = dose: 200.0 mg/kg/injection, schedule: Q01DX009 (ip), vehicle: Klucel (hydroxypropylcellulose) (HPC)
[3] = dose: 400.0 mg/kg/injection, schedule: Q01DX009 (ip), vehicle: Klucel (hydroxypropylcellulose) (HPC)
[4] = dose: 100.0 mg/kg/injection, schedule: Q04DX003 (ip), vehicle: saline with Tween-80
[5] = dose: 200.0 mg/kg/injection, schedule: Q04DX003 (ip), vehicle: saline with Tween-80
[6] = dose: 400.0 mg/kg/injection, schedule: Q04DX003 (ip), vehicle: saline with Tween-80
[7] = dose: 50.0 mg/kg/injection, schedule: Q01DX009 (ip), vehicle: Klucel (hydroxypropylcellulose) (HPC)
[8] = dose: 100.0 mg/kg/injection, schedule: Q01DX001 (ip), vehicle: saline
[9] = dose: 200.0 mg/kg/injection, schedule: Q01DX001 (ip), vehicle: saline
[10] = dose: 400.0 mg/kg/injection, schedule: Q01DX001 (ip), vehicle: saline
[11] = dose: 25.0 mg/kg/injection, schedule: Q01DX009 (ip), vehicle: saline
[12] = dose: 100.0 mg/kg/injection, schedule: Q01DX005 (ip), vehicle: saline

Measured: T/C

Cc1ccnc(NS(=O)(=O)c2ccc(NC(=O)c3ccc(C(=O)Nc4ccc(S(=O)(=O)Nc5nccc(C)n5)cc4)cc3)cc2)n1
inactive: dose: 3.87 mg/kg/injection, schedule: Q01DX015 (ip), vehicle: methylcellulose (MC) 96 % of control | dose: 7.75 mg/kg/injection, schedule: Q01DX015 (ip), vehicle: methylcellulose (MC) 101 % of control | dose: 15.5 mg/kg/injection, schedule: Q01DX015 (ip), vehicle: methylcellulose (MC) 104 % of control | dose: 31.0 mg/kg/injection, schedule: Q01DX015 (ip), vehicle: methylcellulose (MC) 104 % of control | dose: 62.0 mg/kg/injection, schedule: Q01DX015 (ip), vehicle: methylcellulose (MC) 94 % of control | dose: 125.0 mg/kg/injection, schedule: Q01DX015 (ip), vehicle: methylcellulose (MC) 101 % of control | dose: 250.0 mg/kg/injection, schedule: Q01DX015 (ip), vehicle: methylcellulose (MC) 100 % of control | dose: 500.0 mg/kg/injection, schedule: Q01DX015 (ip), vehicle: methylcellulose (MC) 102 % of control

CCCCCCOC(=O)Nc1ccc([N+](=O)[O-])cc1OC
inactive: [1] 103 % of control | [2] 100 % of control | [3] 95 % of control

CCCCCCCC/C=C\CCCCCCCCNC(C)=O
inactive: [4] 101 % of control | [5] 103 % of control | [6] 98 % of control

O=C(ONC(=O)[C@@H]1CCCC[C@H]1C(=O)NOC(=O)c1ccccc1)c1ccccc1
inactive: dose: 50.0 mg/kg/injection, schedule: Q01DX001 (ip), vehicle: Klucel (hydroxypropylcellulose) (HPC) 97 % of control | [7] 92 % of control | dose: 100.0 mg/kg/injection, schedule: Q01DX001 (ip), vehicle: Klucel (hydroxypropylcellulose) (HPC) 97 % of control | [1] 92 % of control | dose: 200.0 mg/kg/injection, schedule: Q01DX001 (ip), vehicle: Klucel (hydroxypropylcellulose) (HPC) 97 % of control | [2] 103 % of control | dose: 400.0 mg/kg/injection, schedule: Q01DX001 (ip), vehicle: Klucel (hydroxypropylcellulose) (HPC) 96 % of control | [3] 97 % of control

CS(=O)(=O)OCCN(CCO)c1cn(C(c2ccccc2)(c2ccccc2)c2ccccc2)c(=O)n(C(c2ccccc2)(c2ccccc2)c2ccccc2)c1=O
inactive: dose: 50.0 mg/kg/injection, schedule: Q01DX001 (ip), vehicle: saline 94 % of control | [8] 105 % of control | [9] 97 % of control | [10] 103 % of control

CN(C)c1ccc(/C=N/Nc2c([N+](=O)[O-])cc(C(F)(F)F)cc2[N+](=O)[O-])cc1
inactive: dose: 100.0 mg/kg/injection, schedule: Q01DX009 (ip), vehicle: gum acacia 90 % of control | dose: 200.0 mg/kg/injection, schedule: Q01DX009 (ip), vehicle: gum acacia 88 % of control | dose: 400.0 mg/kg/injection, schedule: Q01DX009 (ip), vehicle: gum acacia 88 % of control

N/C(=N\O)c1cn(C2OC(CO)C(O)C2O)c2ncncc12 (stereo not drawn)
inactive: [11] 123 % of control | [12] 120 % of control

N/C(=N\O)c1ncn(C2OC(CO)C(O)C2O)c1N (stereo not drawn)
inactive: [12] 103 % of control | dose: 200.0 mg/kg/injection, schedule: Q01DX005 (ip), vehicle: saline 108 % of control

CC(C)(CO)C(=O)O
inactive: [8] 101 % of control | [9] 98 % of control | [10] 106 % of control

Cc1cc(Br)c[nH]c1=O
inactive: [4] 98 % of control | [5] 98 % of control | [6] 102 % of control

NNCCc1ccccc1
inactive: dose: 6.25 mg/kg/injection, schedule: Q01DX009 (ip), vehicle: saline 105 % of control | dose: 12.5 mg/kg/injection, schedule: Q01DX009 (ip), vehicle: saline 101 % of control | [11] 95 % of control | dose: 25.0 mg/kg/injection, schedule: Q04DX003 (ip), vehicle: saline 120 % of control | dose: 50.0 mg/kg/injection, schedule: Q01DX009 (ip), vehicle: saline 104 % of control | dose: 50.0 mg/kg/injection, schedule: Q04DX003 (ip), vehicle: saline 106 % of control | dose: 100.0 mg/kg/injection, schedule: Q04DX003 (ip), vehicle: saline 111 % of control

Oc1cccc2cccnc12.[Al]
inactive: dose: 10.0 mg/kg/injection, schedule: Q01DX Z (ip), vehicle: carboxymethylcellulose (CMC) 93 % of control | dose: 20.0 mg/kg/injection, schedule: Q01DX Z (ip), vehicle: carboxymethylcellulose (CMC) 97 % of control | dose: 40.0 mg/kg/injection, schedule: Q01DX Z (ip), vehicle: carboxymethylcellulose (CMC) 93 % of control | [7] 94 % of control | dose: 50.0 mg/kg/injection, schedule: Q04DX003 (ip), vehicle: Klucel (hydroxypropylcellulose) (HPC) 101 % of control | [1] 100 % of control | dose: 100.0 mg/kg/injection, schedule: Q04DX003 (ip), vehicle: Klucel (hydroxypropylcellulose) (HPC) 102 % of control | [2] 96 % of control | dose: 200.0 mg/kg/injection, schedule: Q04DX003 (ip), vehicle: Klucel (hydroxypropylcellulose) (HPC) 101 % of control

NS(=O)(=O)c1ccc(N=Cc2cc(Cl)cc(Cl)c2O)cc1
inactive: [1] 101 % of control | [2] 106 % of control | [3] 106 % of control
